Values after ≈ are worked out from the molar mass of the structure shown. Like-named read-outs stand apart in the source and are kept apart here.

Broadly, the IC50 is the concentration needed to halve the response being measured.

Assay [1] has as its system Human pancreatic cancer cell line Panc-1. Description: cells. It counts as cell-based. The note with it: Homo sapiens, PANC-1; MTT, 48 hours; read-out: IC50 and 95% confidence limit, anti-proliferative effect on Panc-1. Here is the method: (§1) Cell lines: Human pancreatic cancer cell line Panc-1, human colorectal cancer cell line HT29, human lung cancer cell line NCI-H460 and human breast cancer cell line MCF7; the medium: s DMEM (Gibco BRL), containing 10% fetal calf serum (Gibco BRL) and 2 mM L-glutamine (Gibco BRL).
(§2) Test samples: example compounds 7, 15, 82, 89, 116 and 135. The samples were dissolved in dimethyl sulfoxide (DMSO, Sigma, United States) and medium was added to the final concentration of 0.5%. Cyclophosphamide ware as positive control (Aldrich, United States, purity>96%).
(§3) General Method: cells were digested with trypsin and dispersed into single cells in the medium containing penicillin (25 U/ml) and streptomycin (25 μg/mL). The cells were seeded in 96-well culture plates (Corning Incorporated), at 37° C., with 5% CO2 present for 24 hours. The culture medium was removed, […] test compounds were added, cultured for 48 hours. Culture medium was removed and […] (MTT, USA Sigma products) was added. The result was assayed by SK601-based microplate reader (Japan Seikagaku company's products), 570 nm/630 nm optical density (OD). Cell viability determined by the formula: (Experimental group OD/control OD)×100%; CTX and the positive control subjects treated in the same material simultaneously.

In assay [2] the test system is human breast cancer cell line MCF7. Description: cells. It counts as cell-based. Here is the method:
as §1, §2, §3

Assay [3] deals with human colorectal cancer cell line HT29. Description: cells. It counts as cell-based. Conditions: for IC50: Homo sapiens, HT-29, MTT. Here is the method: as §1, §2, §3
Assay [4] concerns human lung cancer cell line NCI-H460. Description: cells. It counts as cell-based. The note with it: for IC50: Homo sapiens. Here is the method:
as §1, §2, §3

The test system of a further assay is mice sarcoma S180. Kind of assay: Growth inhibition of S180 sarcoma in mice. It counts as in vivo, Kunming healthy mice. Conditions: for in-vivo anti-tumor efficacy, statistical significance (in words): S180 sarcoma in mice, doses and routes of Table 3.
[5] abbreviates: Mus musculus, S-180, mice, iv, read-out: Inhibition rate (%) S180 sarcoma.
Where [6] appears, read: Mus musculus, S-180, mice, ip, read-out: Inhibition rate (%) S180 sarcoma.

For `CCOC(=O)c1nn(CO)c2c(=O)n(C3OC3CO)nnc12` (stereo not drawn) [Example 7, ethyl 7-(hydroxymethyl)-2-(3-(hydroxymethyl)oxiran-2-yl)-1-oxo-2,7-dihydro-1H-pyrazolo[4,3-d][1,2,3]triazine-5-carboxylate], the IC50 in assay [1] was determined as 51.3 µg/mL (≈ 165 µM); in assay [2] (MCF7, MTT, 48 hours, unit inferred, read-out: IC50 with 95% confidence limits, MCF7 cells) it was 6.18 µM; in assay [2] (MCF7, MTT, cultured for 48 hours, value (95% confidence limit), Table 2, read-out: IC50 Breast cancer MCF7), 6.18 µM; in assay [3] (48 hours, read-out: IC50 and 95% confidence limit, anti-proliferative effect on HT29), 18.8 µg/mL; in assay [3] (cultured for 48 hours, value (95% confidence limit), Table 2, read-out: IC50 Colorectal cancer HT-29), 18.8 µM; in assay [4] (NCI-H460, MTT, 48 hours, unit inferred, read-out: IC50 and 95% confidence limits, NCI-H460 cells), 5.18 µM. In addition, the half-maximal inhibitory concentration (IC50) in assay [4] (NCI-H460, MTT, cultured for 48 hours, value (95% confidence limit), Table 2, read-out: IC50 Lung cancer NCI-H460) worked out at 5.18 µM. Besides, the “anti-proliferative effect on HT29 (in words)” value in assay [3] (colorectal cancer) is recorded as “relatively weak”. In addition, in assay [4] (lung cancer), the “inhibitory effect on NCI-H460 cells (in words)” value is reported as “more sensitive to NCI-H460 cells”.
`O=P1(N(CCCl)CCCl)NCCCO1` (stereo not drawn) [CTX, Cyclophosphamide, reference compound]: the half-inhibitory concentration (IC50) in assay [2] (MCF7, 48 h, read-out: IC50 and 95% confidence limit, MCF7 cells) amounted to 0.92 µg/mL; in assay [4] (NCI-H460, 48 h, read-out: IC50 Lung cancer NCI-H460) it was 4.3 µM; in assay [4] (NCI-H460, 48 h, read-out: IC50 and 95% confidence limit, NCI-H460 cells) it was 4.3 µg/mL. The inhibition in vivo at 15 mg/kg in the assay on mice sarcoma S180 (setting [5]) was less than 40%.
For the molecule `N#Cc1nn(C(N)=S)c2c(=O)n(C3OC(CO)C(O)C3O)nnc12` (stereo not drawn) [Example 77, 7-cyano-3-(3,4-dihydroxy-5-(hydroxymethyl)tetrahydrofuran-2-yl)-4-oxo-3H-pyrazolo[4,3-d][1,2,3]triazine-5(4H)-carbothioamide], the inhibition in vivo at 100 mg/kg with mice sarcoma S180 (setting [6]) was less than 40%. Moreover, the “in-vivo anti-tumor efficacy, statistical significance (in words)” value in the assay with mice sarcoma S180 is recorded as “statistically significant”.
Take `CCCc1nn(C)c2c(=O)n(C3OC(CO)C(O)C3O)nnc12` (stereo not drawn) [Example 23, 3-(3,4-dihydroxy-5-(hydroxymethyl)tetrahydrofuran-2-yl)-5-methyl-7-propyl-3H-pyrazolo [4,3-d][1,2,3]triazin-4(5H)-one]: in the assay on mice sarcoma S180 (setting [6]), the inhibition in vivo at 100 mg/kg was less than 40%. Besides, the “in-vivo anti-tumor efficacy, statistical significance (in words)” value in the assay on mice sarcoma S180 was “statistically significant”.
As to `CCCn1nnc2nnn(C3OC(CO)C(O)C3O)c(=O)c21` (stereo not drawn) [Example 147, 6-(3,4-dihydroxy-5-(hydroxymethyl)tetrahydrofuran-2-yl)-1-propyl-1H-[1,2,3]triazolo[4,5-d][1,2,3]triazin-7(6H)-one], the inhibition in vivo at 300 mg/kg in the assay with mice sarcoma S180 (setting [6]) was less than 20%.
Take `COc1ccc(C(=O)Nc2nn(C(N)=O)c3c(=O)n(C4OC(CO)C(O)C4O)nnc23)cc1` (stereo not drawn) [Example 61, 3-(3,4-dihydroxy-5-(hydroxymethyl)tetrahydrofuran-2-yl)-7-(4-methoxybenzamido)-4-oxo-3H-pyrazolo[4,3-d][1,2,3]triazine-5(4H)-carboxamide]: the inhibition in vivo at 12.5 mg/kg in the assay on mice sarcoma S180 (Mus musculus, S-180, mice, iv, 12.5 mg/kg, read-out: Inhibition rate (%) S180 sarcoma) was less than 20%.
Regarding `CCCc1nn(C(=N)N)c2c(=O)n(C3CSC(CO)O3)nnc12` (stereo not drawn) [Example 100, 3-(2-(hydroxymethyl)-1,3-oxathiolan-5-yl)-4-oxo-7-propyl-3H-pyrazolo[4,3-d][1,2,3]triazine-5(4H)-carboximidamide], the inhibition in vivo at 100 mg/kg with mice sarcoma S180 (setting [6]) is less than 40%. Further, the “in-vivo anti-tumor efficacy, statistical significance (in words)” value in the assay with mice sarcoma S180 is listed as “statistically significant”.
Turning to `O=c1c2nnn(CO)c2nnn1C1OC(CO)C(O)C1O` (stereo not drawn) [Example 152, 6-(3,4-dihydroxy-5-(hydroxymethyl)tetrahydrofuran-2-yl)-3-(hydroxymethyl)-3H-[1,2,3]triazolo[4,5-d][1,2,3]triazin-7(6H)-one], the inhibition in vivo at 400 mg/kg in the assay on mice sarcoma S180 (setting [6]) was less than 20%.
The same measure, in the same setting: under `CCCc1nn(C(=N)N)c2c(=O)n(C3CCC(CO)O3)nnc12` (stereo not drawn) [Example 85, 3-(5-(hydroxymethyl)tetrahydrofuran-2-yl)-4-oxo-7-propyl-3H-pyrazolo[4,3-d][1,2,3]triazine-5(4H)-carboximidamide] stands less than 20%.
As for `Cn1nc(N2CCCCC2)c2nnn(C3OC(CO)C(O)C3O)c(=O)c21` (stereo not drawn) [Example 27, 3-(3,4-dihydroxy-5-(hydroxymethyl)tetrahydrofuran-2-yl)-5-methyl-7-(piperidin-1-yl)-3H-pyrazolo[4,3-d][1,2,3]triazin-4(5H)-one], in the assay on mice sarcoma S180 (setting [5]), the inhibition in vivo at 15 mg/kg is less than 20%.
In the case of `N#Cc1nn(C(N)=O)c2c(=O)n(C3OC(CO)C(O)C3O)nnc12` (stereo not drawn) [Example 58, 7-cyano-3-(3,4-dihydroxy-5-(hydroxymethyl)tetrahydrofuran-2-yl)-4-oxo-3H-pyrazolo[4,3-d][1,2,3]triazine-5(4H)-carboxamide], in the assay on mice sarcoma S180 (setting [6]), the inhibition in vivo at 100 mg/kg is less than 40%. In the assay with mice sarcoma S180, the “in-vivo anti-tumor efficacy, statistical significance (in words)” value is reported as “statistically significant”.
Regarding `CCCc1nn(C2CC2)c2c(=O)n(C3OC(CO)C(O)C3O)nnc12` (stereo not drawn) [Example 40, 5-cyclopropyl-3-(3,4-dihydroxy-5-(hydroxymethyl)tetrahydrofuran-2-yl)-7-propyl-3H-pyrazolo[4,3-d][1,2,3]triazin-4(5H)-one], in the assay with mice sarcoma S180 (Mus musculus, S-180, mice, iv, 50 mg/kg, read-out: Inhibition rate (%) S180 sarcoma), the inhibition in vivo at 50 mg/kg was less than 20%.
For `CCCc1nn(C)c2c(=O)n(C3CCC(CO)O3)nnc12` (stereo not drawn) [Example 80, 3-(5-(hydroxymethyl)tetrahydrofuran-2-yl)-5-methyl-7-propyl-3H-pyrazolo[4,3-d][1,2,3]triazin-4(5H)-one], in the assay on mice sarcoma S180 (setting [6]), the inhibition in vivo at 200 mg/kg is less than 20%.
Consider `CN(C)CCC(=O)Nc1nn(C(N)=O)c2c(=O)n(C3CSC(CO)O3)nnc12` (stereo not drawn) [Example 99, 7-(3-(dimethylamino)propanamido)-3-(2-(hydroxymethyl)-1,3-oxathiolan-5-yl)-4-oxo-3H-pyrazolo[4,3-d][1,2,3]triazine-5(4H)-carboxamide], for which the inhibition in vivo at 150 mg/kg in the assay on mice sarcoma S180 (Mus musculus, S-180, mice, ip, 150 mg/kg, read-out: Inhibition rate (%) S180 sarcoma) was less than 20%.
Take `CCCc1nn(C(N)=O)c2c(=O)n(C3OC(CO)C(O)C3O)nnc12` (stereo not drawn) [Example 55, 3-(3,4-dihydroxy-5-(hydroxymethyl)tetrahydrofuran-2-yl)-4-oxo-7-propyl-3H-pyrazolo [4,3-d][1,2,3]triazine-5(4H)-carboxamide]: in the assay on mice sarcoma S180 (setting [6]), the inhibition in vivo at 100 mg/kg was less than 40%. For the same molecule, in the assay with mice sarcoma S180, the “in-vivo anti-tumor efficacy, statistical significance (in words)” value is listed as “statistically significant”.
`CCOC(=O)c1nn(C)c2c(=O)n(C3OC(CO)C(O)C3O)nnc12` (stereo not drawn) [Example 22, ethyl 3-(3,4-dihydroxy-5-(hydroxymethyl)tetrahydrofuran-2-yl)-5-methyl-4-oxo-4,5-dihydro-3H-pyrazolo[4,3-d][1,2,3]triazine-7-carboxylate]: the inhibition in vivo at 200 mg/kg in the assay with mice sarcoma S180 (setting [6]) is less than 40%. In addition, in the assay on mice sarcoma S180, the “in-vivo anti-tumor efficacy, statistical significance (in words)” value was “statistically significant”.
For `Cn1nc(N)c2nnn(C3OC(CO)C(O)C3O)c(=O)c21` (stereo not drawn) [Example 24, 7-amino-3-(3,4-dihydroxy-5-(hydroxymethyl)tetrahydrofuran-2-yl)-5-methyl-3H-pyrazolo [4,3-d][1,2,3]triazin-4(5H)-one], the inhibition in vivo at 300 mg/kg with mice sarcoma S180 (setting [6]) was less than 40%. Further, in the assay on mice sarcoma S180, the “in-vivo anti-tumor efficacy, statistical significance (in words)” value is “statistically significant”.
Turning to `CCCc1nn(CO)c2c(=O)n(C3CSC(CO)O3)nnc12` (stereo not drawn) [Example 94, 5-(hydroxymethyl)-3-(2-(hydroxymethyl)-1,3-oxathiolan-5-yl)-7-propyl-3H-pyrazolo[4,3-d][1,2,3]triazin-4(5H)-one], the inhibition in vivo at 30 mg/kg in the assay with mice sarcoma S180 (Mus musculus, S-180, mice, iv, 30 mg/kg, read-out: Inhibition rate (%) S180 sarcoma) is less than 40%. In addition, the “in-vivo anti-tumor efficacy, statistical significance (in words)” value in the assay on mice sarcoma S180 was “statistically significant”.
As for `Cn1nc([N+](=O)[O-])c2nnn(C3OC(CO)C(O)C3O)c(=O)c21` (stereo not drawn) [Example 28, 3-(3,4-dihydroxy-5-(hydroxymethyl)tetrahydrofuran-2-yl)-5-methyl-7-nitro-3H-pyrazolo [4,3-d][1,2,3]triazin-4(5H)-one], the inhibition in vivo at 20 mg/kg in the assay on mice sarcoma S180 (Mus musculus, S-180, mice, iv, 20 mg/kg, read-out: Inhibition rate (%) S180 sarcoma) is less than 40%. The “in-vivo anti-tumor efficacy, statistical significance (in words)” value in the assay with mice sarcoma S180 is on record as “statistically significant”.

Source of the values: patent publication US20210292347A1, “DIHETEROCYCLIC TRIAZINONE NUCLEOSIDE ANALOGS AND THEIR USE FOR MEDICATION” (priority 2020, published 2021).
